# Positions of bridges follow the written chain, without caps; N, C: chain ends. Non-standard residues stand in square brackets, D forms with d. Residues, ends and D or L forms follow the SMILES beside them. Phe(4-OC2H4NH2,2,3-(CH2)3) = NCCOc1ccc(C[C@H](N)C(=O)O)c2c1CCC2; Trp(7-cPr) = N[C@@H](Cc1c[nH]c2c(C3CC3)cccc12)C(=O)O; Trp(7-Me) = Cc1cccc2c(C[C@H](N)C(=O)O)c[nH]c12; 2Nal = N[C@@H](Cc1ccc2ccccc2c1)C(=O)O; Thp(SO2) = NC1(C(=O)O)CCS(=O)(=O)CC1; AEF = NCCOc1ccc(C[C@H](N)C(=O)O)cc1; 3Pal = N[C@@H](Cc1cccnc1)C(=O)O; Cit = NC(=O)NCCC[C@H](N)C(=O)O; Pen = CC(C)(S)[C@H](N)C(=O)O; Thp = NC1(C(=O)O)CCOCC1; Sar = CNCC(=O)O
# What was measured:
# IL-23α/IL-12β and IL-23R = biological target: T1, IL-23α/IL-12β and IL-23R (Homo sapiens, UniProt Q5VWK5); assay: IL-23α/IL-12β and IL-23R binding assay (TR-FRET/HTRF); conditions: inhibition of the binding of IL-23α/IL-12β to IL-23R, TR-FRET; both proteins 0.3 nM
# T1 construct: purchased ACRO ILR-H82F3 (IL-23R); ILB-H52W5 (IL-23α/IL-12β)
# T1 sequence (Q5VWK5 24-353 limits assumed): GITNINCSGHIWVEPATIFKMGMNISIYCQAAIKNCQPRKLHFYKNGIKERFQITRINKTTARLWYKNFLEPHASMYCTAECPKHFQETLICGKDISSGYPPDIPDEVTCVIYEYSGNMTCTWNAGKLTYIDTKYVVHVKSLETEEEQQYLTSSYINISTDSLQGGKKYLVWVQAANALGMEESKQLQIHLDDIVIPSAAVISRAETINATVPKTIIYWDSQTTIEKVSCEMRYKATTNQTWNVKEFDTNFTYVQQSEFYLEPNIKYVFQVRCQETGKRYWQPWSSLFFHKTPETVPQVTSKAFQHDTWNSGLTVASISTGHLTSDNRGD
# Method in brief: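 TR-FRET with IL-23α/IL-12β and IL-23R each at 0.3 nM in PPI buffer; compound preincubated with IL-23α/IL-12β 60 min at 25°C, then IL-23R and Tb/d2 detection reagents added for 60 min. HTRF 665/620 ratio; IC50 by nonlinear regression.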
# [1] = biological target: (Homo sapiens, UniProt Q5VWK5); assay: IL-23-stimulated pSTAT3 detection assay in PBMCs (ELISA); format: cell-based; conditions: rhIL23 stimulation 30 minutes, read-out: pSTAT3 inhibition/IC50
# Chain of (Homo sapiens, UniProt Q5VWK5) (Q9NPF7 20-189 partner, other chains not shown): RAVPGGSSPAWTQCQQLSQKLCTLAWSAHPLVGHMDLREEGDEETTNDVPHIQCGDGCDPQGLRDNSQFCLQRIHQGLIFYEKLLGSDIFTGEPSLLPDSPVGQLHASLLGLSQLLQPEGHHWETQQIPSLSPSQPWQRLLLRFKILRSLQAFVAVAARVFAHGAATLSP
# Chain of (Homo sapiens, UniProt Q5VWK5) (P29460 23-328 partner, other chains not shown): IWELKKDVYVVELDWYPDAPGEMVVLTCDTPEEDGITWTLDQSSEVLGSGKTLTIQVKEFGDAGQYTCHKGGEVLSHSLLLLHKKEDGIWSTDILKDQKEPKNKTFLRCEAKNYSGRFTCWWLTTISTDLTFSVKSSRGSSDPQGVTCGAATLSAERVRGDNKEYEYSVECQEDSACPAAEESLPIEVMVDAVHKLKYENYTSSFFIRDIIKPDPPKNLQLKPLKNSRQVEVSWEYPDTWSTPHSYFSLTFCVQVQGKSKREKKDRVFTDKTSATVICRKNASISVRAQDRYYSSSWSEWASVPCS
# Procedure: 3. IL-23-stimulated pSTAT3 detection assay in PBMCs
# Cryopreserved human PBMCs were thawed, and seeded onto a plate previously covered with an anti-CD3 antibody at 1 × 10^6 cells/well. Then, an anti-CD28 antibody was added to the plate, and the cells were incubated at 37°C with 5% CO2 for 5 days. On Day 5, the cells were seeded onto a 96-well plate at a density of 100K cells/well after 4 hours of stimulation by FBS starvation. The diluted Compound was transferred into the 96-well cell culture plate, and the plate was incubated at 37°C with 5% CO2 for 1 hour. rhIL23 (R&D, 1290-IL) was added to the cell culture plate, and the plate was incubated at 37°C with 5% CO2 for 30 minutes. The cells in the wells were lysed on ice with a lysis buffer containing 1× PHOSstop solution for 30 minutes, and the plate was centrifuged at 1000 rpm for 1 minute. Then, the supernatant was transferred into a 96-well ELISA plate, and pSTAT3 ELISA assay was performed according to the instructions of the kit (CST, 7300CA). Absorbance values at […] were read on PHERAstar FSX (BMG LRBTECH). The inhibition rate of the compounds was assessed using the following formula, and IC50 values were obtained by fitting with Graphpad.
# (§1) Calculation formula of inhibition rate: [formula] • where Data negative: mean of DMSO control group; and • Data positive: mean of non-IL23-stimulated group
# The calculation formula of IC50 was as follows: Y = Bottom + (Top−Bottom)/(1+10^(∧)((LogIC50−X)*HillSlope)) [formula] • where X: concentration of compound; and • Y: inhibition rate of compound. Table 3. pSTAT3 inhibition
# IL-23R = biological target: T2, IL-23R (Homo sapiens, UniProt Q5VWK5); assay: IL-23R reporter gene assay (HEK-blue IL23 reporter gene cell line, rhIL23 stimulation); format: cell-based; conditions: Inhibition of IL-23R, rhIL23 1 ng/mL, 24 hours
# T2 construct: host or cells: HEK-blue IL23 reporter gene cell line
# T2 sequence (Q5VWK5 24-629): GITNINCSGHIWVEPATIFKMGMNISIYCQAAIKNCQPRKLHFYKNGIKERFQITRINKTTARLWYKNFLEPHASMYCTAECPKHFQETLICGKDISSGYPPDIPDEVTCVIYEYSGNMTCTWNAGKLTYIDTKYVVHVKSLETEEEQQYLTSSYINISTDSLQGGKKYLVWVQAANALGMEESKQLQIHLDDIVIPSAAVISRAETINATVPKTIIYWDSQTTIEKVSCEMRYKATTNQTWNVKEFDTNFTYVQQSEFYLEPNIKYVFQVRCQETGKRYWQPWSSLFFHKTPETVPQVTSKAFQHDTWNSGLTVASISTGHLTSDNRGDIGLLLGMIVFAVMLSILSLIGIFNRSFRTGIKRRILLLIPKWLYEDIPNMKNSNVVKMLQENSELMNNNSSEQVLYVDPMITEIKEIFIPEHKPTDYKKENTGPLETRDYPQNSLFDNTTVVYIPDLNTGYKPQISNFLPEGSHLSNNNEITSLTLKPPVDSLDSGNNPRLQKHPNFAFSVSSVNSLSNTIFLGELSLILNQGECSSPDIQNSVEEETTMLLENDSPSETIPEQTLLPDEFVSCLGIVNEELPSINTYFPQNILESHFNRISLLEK
# Procedure: 2. IL-23R reporter gene assay
# The purpose of this assay was to assess the ability of compounds to inhibit the binding of IL23p19 to IL23R in a reporter gene system. The HEK-blue IL23 reporter gene cell line (Invivogen, hkb-il23) was cultured in DMEM + 10% FBS + 100 ug/mL Normocin medium. When the cell density reached 80%-90%, 5000 cells/well were plated into a 384-well plate, and the plate was incubated overnight at 37°C with 5% CO2. Then, the compound stock solution was diluted in DMSO, and 40 nL of the dilution was transferred into the 384-well culture plate by Echo. The plate was incubated at 37°C with 5% CO2 for 0.5 hours. 40 nL/well of rhIL23 (R&D, 1290-IL) was added to the 384-well cell culture plate at a final concentration of 1 ng/mL, and the plate was incubated at 37°C with 5% CO2 for 24 hours. 18 µL of Quanti-Blue™ solution was added to a new 384-well plate. 2 µL/well of cell culture supernatant was transferred into the 384-well plate prepared in Step 6, and the plate was incubated at 37°C with 5% CO2 for 1 hour. Absorbance values at […] were read on BMG. The binding ability of the compounds was assessed using the following formula, and IC50 values were obtained by fitting with Graphpad.
# as §1
# The calculation formula of IC50 was as follows: Y = Bottom + (Top−Bottom)/(1+10^(∧)((LogIC50−X)*HillSlope)) [formula] • where X: concentration of compound; and • Y: inhibition rate of compound Table 2. Inhibition of IL-23R by test compounds
# [2] = Pharmacokinetic test in mice (intravenous and intragastric, plasma LC-MS/MS); format: in vivo; conditions: male, mouse, Balb/c mice
# Procedure: 4. Pharmacokinetic test in mice
# 4.1. Experimental animals: Male Balb/c mice (20-25 g, 18 mice/compound) were purchased from Chengdu Dossy Experimental Animals Co., Ltd.
# 4.2. Experimental design: On the day of the experiment, the Balb/c mice were randomly grouped by body weight. The animals were fasted with water available for 12-14 h one day before the administration, and were fed 4 h after the administration. Table 4. Administration information
# Before and after administration, 0.06 mL of blood was taken from the orbit under isoflurane anaesthesia, and placed in an EDTAK2 centrifuge tube. The tube was centrifuged at 5000 rpm at 4°C for 10 min, and plasma was collected. The blood collection time points for the intravenous group and intragastric group were both 0 min, 5 min, 15 min, 30 min, 1 h, 2 h, 4 h, 6 h, 8 h, and 24 h. Before analysis and detection, all samples were stored at -80°C, and the samples were quantitatively analysed by LC-MS/MS. Table 5. Pharmacokinetic parameters of test compounds in mouse plasma
Compound,IC50 (IL-23α/IL-12β and IL-23R) [nM],IC50 [1] [nM],IC50 (IL-23R) [nM],"AUC(0-t) ([2]; iv, i.v. (1 mg/kg)) [ng·h/mL]","clearance ([2]; iv, i.v. (1 mg/kg)) [mL/min/kg]","Vd ([2]; iv, i.v. (1 mg/kg), read-out: Vdss) [L/kg]","AUC(0-t) ([2]; po, i.g. (10 mg/kg)) [ng·h/mL]","bioavailability ([2]; po, i.g. (10 mg/kg)) [%]"
CC(=O)N[C@@H]1C(=O)N[C@@H](Cc2c[nH]cn2)C(=O)N[C@@H]([C@@H](C)O)C(=O)N[C@@H](Cc2c[nH]c3c(C)cccc23)C(=O)N[C@@H](CCCNC(N)=O)C(=O)N[C@H](C(=O)N[C@@H](Cc2ccc(OCCN)cc2)C(=O)N[C@@H](Cc2ccc3ccccc3c2)C(=O)NC2(C(=O)N[C@@H](CCC(=O)O)C(=O)N[C@@H](CC(N)=O)C(=O)N[C@@H](Cc3cccnc3)C(=O)N(C)CC(N)=O)CCOCC2)C(C)(C)SSC1(C)C [Compound 2] (Ac-[Pen]HT[Trp(7-Me)][Cit][Pen][AEF][2Nal][Thp]EN[3Pal][Sar]-NH2; disulfide 1-6),0.0768,0.0068,1.21,,,,,
CC(=O)N[C@@H]1C(=O)N[C@@H](Cc2c[nH]cn2)C(=O)N[C@@H]([C@@H](C)O)C(=O)N[C@@H](Cc2c[nH]c3c(C4CC4)cccc23)C(=O)N[C@@H](CCC(N)=O)C(=O)N[C@H](C(=O)N[C@@H](Cc2ccc(OCCN)cc2)C(=O)N[C@@H](Cc2ccc3ccccc3c2)C(=O)NC2(C(=O)N[C@@H](CCC(=O)O)C(=O)N[C@@H](CC(N)=O)C(=O)N[C@@H](Cc3cccnc3)C(=O)N(C)CC(N)=O)CCOCC2)C(C)(C)SSC1(C)C [Compound 13] (Ac-[Pen]HT[Trp(7-cPr)]Q[Pen][AEF][2Nal][Thp]EN[3Pal][Sar]-NH2; disulfide 1-6),0.0384,0.001,3.12,,,,,
"CC(=O)N[C@@H]1C(=O)N[C@@H](Cc2c[nH]cn2)C(=O)N[C@@H]([C@@H](C)O)C(=O)N[C@@H](Cc2c[nH]c3c(C4CC4)cccc23)C(=O)N[C@@H](CCC(N)=O)C(=O)N[C@H](C(=O)N[C@@H](Cc2ccc(OCCN)c3c2CCC3)C(=O)N[C@@H](Cc2ccc3ccccc3c2)C(=O)NC2(C(=O)N[C@@H](CCC(=O)O)C(=O)N[C@@H](CC(N)=O)C(=O)N[C@@H](Cc3cccnc3)C(=O)N(C)CC(N)=O)CCS(=O)(=O)CC2)C(C)(C)SSC1(C)C [Compound 16] (Ac-[Pen]HT[Trp(7-cPr)]Q[Pen][Phe(4-OC2H4NH2,2,3-(CH2)3)][2Nal][Thp(SO2)]EN[3Pal][Sar]-NH2; disulfide 1-6)",0.063,0.0069,6.07,5440 ± 220,3.06 ± 0.13,0.378 ± 0.022,143 ± 13,0.263 ± 0.023
CC(=O)N[C@@H]1C(=O)N[C@@H](Cc2c[nH]cn2)C(=O)N[C@@H]([C@@H](C)O)C(=O)N[C@@H](Cc2c[nH]c3c(C)cccc23)C(=O)N[C@@H](CCC(N)=O)C(=O)N[C@H](C(=O)N[C@@H](Cc2ccc(OCCN)cc2)C(=O)N[C@@H](Cc2ccc3ccccc3c2)C(=O)NC2(C(=O)N[C@@H](CCC(=O)O)C(=O)N[C@@H](CC(N)=O)C(=O)N[C@@H](Cc3cccnc3)C(=O)N(C)CC(N)=O)CCOCC2)C(C)(C)SSC1(C)C [Compound 1] (Ac-[Pen]HT[Trp(7-Me)]Q[Pen][AEF][2Nal][Thp]EN[3Pal][Sar]-NH2; disulfide 1-6),0.0642,0.0071,1.1,,,,,

# — EP4729529A1, “PREPARATION OF PEPTIDE INHIBITOR OF INTERLEUKIN-23 RECEPTOR AND USE THEREOF” (Xizang Haisco Pharmaceutical Co., Ltd., priority 2023, dated 2024)
